# Assay results published in article PMC9061999, “Application of the Adverse Outcome Pathway Concept to In Vitro Nephrotoxicity Assessment: Kidney Injury due to Receptor-Mediated Endocytosis and Lysosomal Overload as a Case Study” (Frontiers in Toxicology, 2022).
# Where two headings read alike, the source gives them in different places.
# Legend:
# NRK-52E cells [1] = assay: CellTiter-Glo cytotoxicity assay (KE3); format: cell-based, rat; conditions: for BMC10, KE3: in vitro POD from KE dose-response, cell viability CellTiter-Glo, NRK-52E, 24 h treatment, n = 3; for MOE, KE3: margin of exposure: BMC10 in NRK-52E vs rat plasma/serum concentration (cmax or css)
# Description: Cells were plated into 96-well tissue culture plates (10,000 cells per well) and were allowed to grow for 48 h (NRK-52E) respectively 10 d (RPTEC/TERT1) prior to 24 h treatment with model stressors. Stock solution for each compound (2000 µM) was prepared in growth medium and serial dilutions (1:1) were made before each experiment. At the end of the 24 h treatment, cell viability was measured using the CellTiter-Glo® assay (Promega). CellTiter-Glo® reagents and buffer were mixed under light-protected conditions and 100 µL CellTiter-Glo® solution was added directly to each well followed by 2 min incubation on an orbital shaker and 10 min incubation at room temperature in the dark to stabilize the luminescence signal. The suspension was mixed via pipetting and 50 µL were transferred into white 96-well plates (PerkinElmer Inc.). The luminescence signal was measured on a multiplate reader (Mithras LB 940; Berthold). Each assay was performed in three independent experiments carried out in triplicates.
# NRK-52E cells [2] = assay: Cathepsin D immunofluorescence (KE2, disruption of lysosomes); format: cell-based, rat; conditions: for MOE, lowest across KEs: in vitro PODs in NRK-52E vs rat plasma concentrations after human equivalent or nephrotoxic doses
# Description: (§1) For immunocytochemistry experiments, cells were seeded into 8-well chamber slides (Ibidi) at a density of 140 cells per µL in 300 µL growth medium and were allowed to grow for 48 h (NRK-52E) or 10 d (RPTEC/TERT1) respectively. For treatment, stock solutions (1,000 µM) of compounds dissolved in growth medium were freshly prepared and serial dilutions were made before exposure of cells for 24 h. After treatment, cells were washed twice with 150 µL PBS and fixed with 150 µL 4% paraformaldehyde in 1 x PBS for 10 min at room temperature. After fixation, cells were washed 10 min with 150 µL PBS on an orbital shaker followed by permeabilization with 150 µL 0.2% Triton X-100 in 1 x PBS for 5 min at room temperature on an orbital shaker. The permeabilized cells were washed twice with 1 x PBS (150 µL) for 10 min at room temperature on an orbital shaker and then incubated with 150 µL 5% BSA dissolved in 1 x PBS for 1 h at room temperature to block unspecific binding sites. After blocking, 100 µL primary antibody diluted 1:100 in 1% BSA in 1 x PBS were directly pipetted onto the cells and incubated overnight at 4°C. The following antibodies were employed for NRK-52E cells: Anti-LAMP-1 monoclonal IgG1 kappa mouse antibody (Santa Cruz; sc-20011), anti-Cathepsin D mouse monoclonal IgG2 kappa antibody (Santa Cruz; sc-377124); for RPTEC/TERT1 cells: Anti-LAMP-2 monoclonal mouse antibody (Santa Cruz; sc-18822), anti-Cathepsin D mouse monoclonal IgG2b kappa (Novus Biologicals; NBP1-04278); for both cell lines anti-megalin mouse monoclonal IgG1 antibody (Santa Cruz, sc-515772).
# After incubation with primary antibody, cells were washed three times for 15 min with 0.2% Tween in 1 x PBS (150 µL) on an orbital shaker. Cells were incubated for 1 h at room temperature with 100 µL CFL 488-conjugated mouse IgG kappa binding protein (1:50) (m-IgGκ BP-CFL 488; Santa Cruz, sc-516176). After incubation the cells were washed three times for 15 min with 0.2% Tween in 1 x PBS on an orbital shaker and once with 150 µL sterile water. […] To preserve fluorescence 50–100 µL DAPI mounting medium (Vectashield®; Vectorlab, Biozol) was added to the cells and chamber slides were stored at 4°C in the dark until image acquisition.
# Images were taken with a TCS SP5 II confocal microscope with an HCX PL APO lambda blue 63.0 × 1.40 OIL UV objective (Leica Microsystems, Wetzlar, GER) (n = 10 cells/treatment group). […] Before quantification, images were blinded and randomized. Quantification of fluorescence intensity was performed using NIH Image® software. […] The mean values of the pixel intensities were automatically calculated by the software and imported in Excel for further processing.
# [3] = cited from earlier work
# Excerpt: Plasma/Serum Treatment KE BMC10 [µM] Concentration MOE [µM] RPTEC/TERT1 / Human KE1 4.2 1.0 - 7.4 Polymyxin B KE2 6.8 1.7 - 11.9 0.57 – 4.1 (1,2 ...
# RPTEC/TERT1 cells = assay: LAMP-2 immunofluorescence (KE1, disturbance of lysosomal function); format: cell-based, human; conditions: for BMC10, KE1: in vitro POD from KE dose-response, LAMP-2 intensity, RPTEC/TERT1, 24 h treatment, n = 3 independent experiments; for MOE, lowest across KEs: in vitro PODs in RPTEC/TERT1 vs human plasma concentrations at therapeutic doses; for MOE, KE1: margin of exposure: BMC10 in RPTEC/TERT1 vs human plasma/serum concentration (cmax or css)
# Description: as §1
# After incubation with primary antibody, cells were washed three times for 15 min with 0.2% Tween in 1 x PBS (150 µL) on an orbital shaker. Cells were incubated for 1 h at room temperature with 100 µL CFL 488-conjugated mouse IgG kappa binding protein (1:50) (m-IgGκ BP-CFL 488; Santa Cruz, sc-516176). After incubation the cells were washed three times for 15 min with 0.2% Tween in 1 x PBS on an orbital shaker and once with 150 µL sterile water. Phalloidin-tetramethylrhodamine B isothiocyanate (TRITC) was used to stain the cytoskeleton and was diluted in 100% methanol to a stock concentration of 0.1 mg/ml and further diluted in 1 x PBS to a working concentration of 0.095 µM. After cells were washed once with 1 x PBS for 10 min at room temperature 150 µL phalloidin-TRITC working solution was added and the cells were incubated on an orbital shaker at room temperature for 60–90 min. After incubation, phalloidin-TRITC solution was aspirated, and the cells were washed once with 1 x PBS. Chamber slides were allowed to dry for 15 min at room temperature. To preserve fluorescence 50–100 µL DAPI mounting medium (Vectashield®; Vectorlab, Biozol) was added to the cells and chamber slides were stored at 4°C in the dark until image acquisition.
# Images were taken with a TCS SP5 II confocal microscope with an HCX PL APO lambda blue 63.0 × 1.40 OIL UV objective (Leica Microsystems, Wetzlar, GER) (n = 10 cells/treatment group). The maximum excitation and emission settings for image acquisition were the following: Vectashield® antifade mounting medium with DAPI (λex 360 nm & λem 460 nm), for CFL 488-conjugated mouse IgG kappa binding protein (λex 490 nm & λem 525 nm) and phalloidin-TRITC (λex 545 nm & λem 573 nm). Before quantification, images were blinded and randomized. Quantification of fluorescence intensity was performed using NIH Image® software. Using the tool “Plot Profile” we generated a two-dimensional graph of the intensity of pixels along a reference line (6.35 µm) drawn across the cytoplasm of cells. The mean values of the pixel intensities were automatically calculated by the software and imported in Excel for further processing.
Substance,"BMC10, KE3 (NRK-52E cells [1]) [µM]","MOE, KE3 (NRK-52E cells [1])","BMC10, KE2 (NRK-52E cells [2]; in vitro POD from KE dose-response, cathepsin D intensity, NRK-52E, 24 h treatment, n = 3) [µM]","MOE, lowest across KEs (NRK-52E cells [2])","MOE, KE2 (NRK-52E cells [2]; margin of exposure: BMC10 in NRK-52E vs rat plasma/serum concentration (cmax or css))","Plasma/Serum Concentration ([3]; human, cmax or css at therapeutic or known nephrotoxic doses, ref 1,2 (Sandri et al., 2013; Manchandani et al., 2016)) [µM]","Plasma/Serum Concentration ([3]; rat, cmax or css at human equivalent or nephrotoxic doses, ref 5 (Nilsson et al., 2015)) [µM]","BMC10, KE1 (RPTEC/TERT1 cells) [µM]","MOE, lowest across KEs (RPTEC/TERT1 cells)","MOE, KE1 (RPTEC/TERT1 cells)","Plasma/Serum Concentration ([3]; human, cmax or css at therapeutic or known nephrotoxic doses, ref 3,4 (Tran et al., 2016; Sorli et al., 2017)) [µM]"
Polymyxin B,19.9,2.8,5.8,0.8,0.8,0.57 to 4.1,7.0 to 7.1,4.2,1,1.0 - 7.4,–
Colistin,135.5,13.0 – 26.6,–,1.8,–,–,–,4.3,0.5,0.5 – 10.2,0.42 to 8.1
